Results taken from patent US20060258598A1, “Alpha-keto carbonyl calpain inhibitors” (priority 2003, published 2006).

Assays:
human μ-calpain = molecular target: T1, human μ-calpain (Homo sapiens, UniProt P07384); assay: Enzymatic calpain inhibition assay; type: biochemical; settings: substrate Suc-Leu-Tyr-AMC, read-out: Calp I IC50
T1 construct: purchased Calbiochem
T1 sequence (P07384 1-714): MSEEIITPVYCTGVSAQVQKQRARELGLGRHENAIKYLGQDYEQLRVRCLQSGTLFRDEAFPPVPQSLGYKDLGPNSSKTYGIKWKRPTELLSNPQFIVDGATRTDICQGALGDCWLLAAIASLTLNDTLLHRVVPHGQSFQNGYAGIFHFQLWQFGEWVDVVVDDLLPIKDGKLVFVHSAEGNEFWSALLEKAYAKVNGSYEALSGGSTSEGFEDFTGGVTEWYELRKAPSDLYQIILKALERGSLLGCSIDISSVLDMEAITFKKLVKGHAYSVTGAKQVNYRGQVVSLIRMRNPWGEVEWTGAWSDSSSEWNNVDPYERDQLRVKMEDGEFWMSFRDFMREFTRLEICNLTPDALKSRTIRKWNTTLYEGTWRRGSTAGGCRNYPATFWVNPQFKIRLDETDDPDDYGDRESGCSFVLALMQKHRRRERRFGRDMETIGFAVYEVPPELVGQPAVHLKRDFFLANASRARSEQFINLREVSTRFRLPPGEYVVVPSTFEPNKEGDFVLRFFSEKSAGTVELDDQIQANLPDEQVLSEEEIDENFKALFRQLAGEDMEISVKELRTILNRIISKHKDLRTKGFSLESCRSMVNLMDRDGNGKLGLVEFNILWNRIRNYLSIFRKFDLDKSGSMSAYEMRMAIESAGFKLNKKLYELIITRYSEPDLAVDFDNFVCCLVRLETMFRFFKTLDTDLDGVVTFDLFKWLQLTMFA
T1 sequence (P04632 1-268 partner): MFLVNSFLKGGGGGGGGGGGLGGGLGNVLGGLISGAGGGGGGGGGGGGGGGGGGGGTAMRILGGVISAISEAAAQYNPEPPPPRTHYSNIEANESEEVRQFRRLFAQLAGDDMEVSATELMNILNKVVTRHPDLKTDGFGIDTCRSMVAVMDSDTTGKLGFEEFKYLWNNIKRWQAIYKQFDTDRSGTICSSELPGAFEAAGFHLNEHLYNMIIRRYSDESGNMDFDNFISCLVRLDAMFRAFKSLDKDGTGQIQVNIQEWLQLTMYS
Procedure: The Ki value was also determined in some cases. These criteria were used to measure the inhibitory effect of the compounds (I) on calpain I, calpain II and cathepsin B.
Enzymatic Calpain Inhibition Assay
The inhibitory properties of calpain inhibitors are tested in 100 μl of a buffer containing 100 mM imidazole pH 7.5, 5 mM L-Cystein-HCl, 5 mM CaCl2, 250 μM of the calpain fluorogenic substrate Suc-Leu-Tyr-AMC (Sigma) (Sasaki et al., J. Biol. Chem., 1984, 259, 12489-12949) dissolved in 2.5 μl DMSO and 0.5 μg of human μ-calpain (Calbiochem). The inhibitors dissolved in 1 μl DMSO are added to the reaction buffer. The fluorescence of the cleavage product 7-amino-4-methylcoumarin (AMC) is followed in a SPECTRAmax GEMINI XS (Molecular Device) fluorimeter at λex=360 nm and λem=440 nm at 30° C. during 30 min at intervals of 30 sec in 96-well plates (Greiner). The initial reaction velocity at different inhibitor concentrations is plotted against the inhibitor concentration and the IC50 values determined graphically.

[1] = system: cellular calpains in C2C12 myoblasts; assay: Calpain inhibition assay in C2C12 myoblasts; type: cell-based; settings: 2 h incubation, calcium ionophore Br-A-23187, read-out: Calp I IC50 Myoblast
Procedure: Calpain Inhibition Assay in C2C12 Myoblasts
This assay is aimed at monitoring the ability of the substance to inhibit cellular calpains. C2C12 myoblasts are grown in 96-well plates in growth medium (DMEM, 20% foetal calf serum) until they reach confluency. The growth medium is then replaced by fusion medium (DMEM, 5% horse serum). 24 hours later the fusion medium is replaced by fusion medium containing the test substances dissolved in 1 μl DMSO. After 2 hours of incubation at 37° C. the cells are loaded with the calpain fluorogenic substrate Suc-Leu-Tyr-AMC at 400 μM in 50 μl of a reaction buffer containing 135 mM NaCl; 5 mM KCl; 4 mM CaCl2; 1 mM MgCl2; 10 mM Glucose; 10 mM HEPES pH 7.25 for 20 min at room temperature. The calcium influx, necessary to activate the cellular calpains, is evoked by the addition of 50 μl reaction buffer containing 20 μM of the calcium ionophore Br-A-23187 (Molecular Probes). The fluorescence of the cleavage product AMC is measured as described above during 60 min at 37° C. at intervals of 1 min. The IC50 values are determined as described above. Comparison of the IC50 determined in the enzymatic calpain inhibition assay to the IC50 determined in the C2C12 myoblasts calpain inhibiton assay, allows to evaluate the cellular uptake or the membrane permeability of the substance.

[2] = system: Primary fibroblasts from donors with Friedreich Ataxia (FRDA); assay: BSO assay (cell viability under BSO-induced oxidative stress); type: cell-based, human; settings: 24 h preincubation, 1 mM BSO; for EC50: Homo sapiens, Fibroblast
Procedure: Primary fibroblasts were derived from donors with molecular diagnosis for Friedreich Ataxia (FRDA) and control donors with no mitochondrial disease. Cell lines were obtained from Coriell Cell Repositories (Camden, N.J.; catalog numbers GM04078, GM08402 and GM08399 respectively). All cell types were diagnosed on the molecular level for intronic […] triplet repeat length of at least 400-450 repeats using a PCR-based method. Experiments were carried out as described in the literature (M. L. Jauslin et al., Human Mol. Genet., 2002, 11, 3055-3063): Cells were seeded in microtiter plates at a density of 4'000 cells per 100 μl in growth medium consisting of 25% (v/v) M199 EBS and 64% (v/v) MEM EBS without phenol red (Bioconcept, Allschwil, Switzerland) supplemented with 10% (v/v) fetal calf serum (PAA Laboratories, Linz, Austria), 100 U/ml penicillin, 100 μg/ml streptomycin (PAA Laboratories, Linz, Austria), 10 μg/ml insulin (Sigma, Buchs, Switzerland), 10 ng/ml EGF (Sigma, Buchs, Switzerland), 10 ng/ml bFGF (PreproTech, Rocky Hill, N.J.) and 2 mM glutamine (Sigma, Buchs, Switzerland). The cells were incubated in the presence of various test compounds for 24 h before addition of L-buthionine-(S,R)-sulfoximine (BSO) to a final concentration of 1 mM. Cell viability was measured after the first signs of toxicity appeared in the BSO-treated controls (typically after 16 to 48 h). The cells were stained for 60 min at room temperature in PBS with 1.2 μM calcein AM and 4 μM ethidium homodimer (Live/Dead assay, Molecular Probes, Eugene, Oreg.). Fluorescence intensity was measured with a Gemini Spectramax XS spectrofluorimeter (Molecular Devices, Sunnyvale, Calif.) using excitation and emission wavelengths of 485 nm and 525 nm respectively.

| SMILES | IC50 (human μ-calpain) [µM] | IC50 [1] [µM] | EC50 [2] [µM] | BSO EC50 [2] |
| --- | --- | --- | --- | --- |
| CCNC(=O)C(=O)[C@H](Cc1ccccc1)NC(=O)[C@H](CC(C)(C)C)NC(=O)CCCCC1CCSS1 (stereo partly drawn) [Example 143] | 0.12 | 10 | 2 | – |
| CCNC(=O)C(=O)[C@@H](NC(=O)[C@@H](NC(=O)CCCCC1CCSS1)C(C)C)c1ccccc1 (stereo partly drawn) [Example 153] | 0.4 | 2 | 2.5 | – |
| CCNC(=O)C(=O)[C@H](Cc1ccc(Br)cc1)NC(=O)[C@@H](NC(=O)CCCCC1CCSS1)C(C)CC (stereo partly drawn) [Example 74] | 0.18 | 9 | 3 | – |
| CCNC(=O)C(=O)[C@H](Cc1cccs1)NC(=O)[C@@H](NC(=O)CCCCC1CCSS1)C(C)C (stereo partly drawn) [Example 145] | 0.1 | 6 | 1.5 | – |
| CCNC(=O)C(=O)[C@H](Cc1ccc(O)cc1)NC(=O)[C@@H](NC(=O)CCCCC1CCSS1)C(C)C (stereo partly drawn) [Example 80] | 0.15 | 2.5 | 6 | – |
| CCNC(=O)C(=O)[C@H](Cc1ccc(Cl)cc1Cl)NC(=O)[C@H](CC(C)C)NC(=O)CCCCC1CCSS1 (stereo partly drawn) [Example 35] | 0.05 | 3 | – | inactive |
| Cc1ccc(S(=O)(=O)CNC(=O)C(=O)[C@H](Cc2ccc(Cl)cc2)NC(=O)[C@H](CC(C)C)NC(=O)CCCCC2CCS[S+]2[O-])cc1 (stereo partly drawn) [Example 26] | 0.12 | 2 | 4 | – |
| CCNC(=O)C(=O)[C@H](Cc1ccc(Cl)c(Cl)c1)NC(=O)[C@H](CC(C)C)NC(=O)CCCCC1CCSS1 (stereo partly drawn) [Example 31] | 0.03 | 2.5 | 15 | – |
| CCNC(=O)C(=O)[C@H](Cc1cccc(C(F)(F)F)c1)NC(=O)[C@H](CC(C)C)NC(=O)CCCCC1CCSS1 (stereo partly drawn) [Example 128] | 0.1 | 15 | 20 | – |
| CCNC(=O)C(=O)[C@H](Cc1ccc(C(F)(F)F)cc1)NC(=O)[C@@H](NC(=O)CCCCC1CCSS1)C(C)C (stereo partly drawn) [Example 122] | 0.2 | 1.1 | 5 | – |
| CCNC(=O)C(=O)[C@H](Cc1ccc(Br)cc1)NC(=O)[C@@H](NC(=O)CCCCC1CCS[S+]1[O-])C(C)CC (stereo partly drawn) [Example 75] | 0.75 | 9 | 6 | – |
| CCNC(=O)C(=O)[C@H](Cc1ccc(Cl)cc1)NC(=O)[C@H](CC(C)C)NC(=O)CCCCC1CCSS1 (stereo partly drawn) [Example 15] | 0.022 | 2.5 | 4 | – |
| CCNC(=O)C(=O)[C@H](Cc1ccc(F)cc1)NC(=O)[C@@H](NC(=O)CCCCC1CCSS1)C(C)C (stereo partly drawn) [Example 37] | 0.1 | 2.5 | – | inactive |
| CCNC(=O)C(=O)[C@H](Cc1ccc(Br)cc1)NC(=O)[C@H](CC(C)C)NC(=O)CNC(=O)CCCCC1CCS[S+]1[O-] (stereo partly drawn) [Example 187] | 0.015 | 7.5 | 20 | – |
| CCNC(=O)C(=O)[C@H](Cc1cccc(C(F)(F)F)c1)NC(=O)[C@H](CC(C)C)NC(=O)CCCCC1CCS[S+]1[O-] (stereo partly drawn) [Example 129] | 0.05 | 4 | 2 | – |
| CCNC(=O)C(=O)[C@H](Cc1ccc(OC)cc1)NC(=O)[C@@H](NC(=O)C1(NC(=O)CCCCC2CCSS2)CCCCC1)C(C)C (stereo partly drawn) [Example 195] | 0.17 | 1.5 | 5 | – |
| CCNC(=O)C(=O)[C@H](Cc1ccc(Cl)cc1)NC(=O)[C@H](CC(C)(C)C)NC(=O)CCCCC1CCSS1 (stereo partly drawn) [Example 27] | 0.1 | 3.5 | – | inactive |
| CCNC(=O)C(=O)[C@H](Cc1ccc(OC)cc1)NC(=O)[C@@H](NC(=O)c1ccccc1NC(=O)CCCCC1CCS[S+]1[O-])C(C)C (stereo partly drawn) [Example 199] | 0.026 | 1.2 | 4 | – |
| CCNC(=O)C(=O)[C@H](Cc1ccc(Cl)cc1)NC(=O)[C@@H](NC(=O)CCCCC1CCS[S+]1[O-])C(C)C (stereo partly drawn) [Example 2] | 0.08 | 6 | 2 | – |
| CCNC(=O)C(=O)[C@H](Cc1ccccc1)NC(=O)[C@H](CC(C)C)NC(=O)CNC(=O)CCCCC1CCS[S+]1[O-] (stereo partly drawn) [Example 211] | 0.025 | 15 | 4 | – |
| CCNC(=O)C(=O)[C@H](Cc1ccc(OC)cc1)NC(=O)[C@@H](NC(=O)C1(NC(=O)CCCCC2CCSS2)CC1)C(C)C (stereo partly drawn) [Example 192] | 0.37 | 3.2 | 1.5 | – |
| CCNC(=O)C(=O)[C@H](Cc1ccc(C)cc1)NC(=O)[C@H](CC(C)C)NC(=O)CCCCC1CCS[S+]1[O-] (stereo partly drawn) [Example 111] | 0.025 | 1.2 | 3 | – |
| CCNC(=O)C(=O)[C@H](Cc1ccc(Cl)cc1Cl)NC(=O)[C@@H](NC(=O)CCCCC1CCSS1)C(C)C (stereo partly drawn) [Example 33] | 0.1 | 40 | – | inactive |
| CCNC(=O)C(=O)[C@H](Cc1ccc(OC)cc1)NC(=O)[C@@H](NC(=O)c1ccccc1NC(=O)CCCCC1CCSS1)C(C)C (stereo partly drawn) [Example 198] | 0.026 | 1.8 | 8 | – |
